Test results published in ChEMBL document CHEMBL1157274, “Two new maytansinoids from maytenus buchananii” (1999).

Experiments:
P388 = test: In vivo antitumor activity against mouse P388 cells at 0.1 to 1.6 ug/kg; assay type: functional
KB = test: Cytotoxicity against human KB cells; assay type: functional

COc1cc2cc(c1Cl)N1CC(=O)C(C)(O)C(=O)N(C)[C@@H](C)C(=O)O[C@@H](CC1=O)[C@@]1(C)O[C@H]1[C@H](C)[C@@H]1C[C@@](O)(NC(=O)O1)[C@H](OC)/C=C/C=C(\C)C2 (some centres not stated) [MAYTANBICYCLINOL]
T/C (P388): 140%
ED50 (KB): <1 ×10⁻⁵ ug/ml
